In patent US20110306035A1, “Methods and Compositions for Detection of a Pathogen, Disease, Medical Condition, or Biomarker Thereof” (priority 2008, published 2011):

Columns and labels:
[1] = test system: blood; settings: 2,6-pyridinedicarboxylic acid 2.5 mM; blood 10 ul
[2] = test system: meningococcus; test: Meningococcus lysate spiking system (Camb2 cleavage); format: biochemical, Neisseria meningitides; settings: 2,6-pyridinedicarboxylic acid 2.5 mM; lysate 3 ul
Text: (§1) There have been no reports of co-infection of viral and bacterial meningitis. Thus, a test for viral meningitis infection implies a negative result for bacterial meningitis. However, CSF samples infected with bacterial meningitis may have background non-specific activity that leads to false positive results in tests for enterovirus, thereby confusing the results. Background non specific activity in CSF samples could be related to bacterial proteases that can cleave the substrate, leading to a positive signal. The most frequent bacterial meningitis found in CSF include: Streptococcus pneumonia, Neisseria meningitides (meningococc), Haemophilus influenza and Klebsiella pneumonia. Accordingly, Pneumococcus (Streptococcus pneumonia, two different strains 6B and 23F) and meningococcus (Neisseria meningitides) were spiked to simulate the background non specific activity observed in CSF samples and to identify inhibitors to reduce it. A total of more than 40 inhibitors from different groups of inhibitors were tested.
The experiment shown in FIG. 22B was performed in the presence of Echo recombinant protease (1:18), in the presence of meningococcus (lysate 3 ul) or in the presence of blood (10 ul). […]

[3] = target: Echovirus 3C recombinant protease (Echovirus 30, UniProt Q9WN78); test: Echovirus 3C recombinant protease activity with inhibitors or inhibitor cocktails (Camb2); format: biochemical
Sequence of Echovirus 3C recombinant protease (Q9WN78 1550-1732): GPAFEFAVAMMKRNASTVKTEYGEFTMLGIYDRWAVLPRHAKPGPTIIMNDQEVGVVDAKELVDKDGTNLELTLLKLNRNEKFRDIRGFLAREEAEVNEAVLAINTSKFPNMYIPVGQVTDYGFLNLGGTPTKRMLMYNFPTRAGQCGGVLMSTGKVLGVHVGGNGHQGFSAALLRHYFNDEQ
Protocol: Phosphoramidon is a strong inhibitor of many bacterial Metalloendoproteinases, thermolysin, and elastase, but a weak inhibitor of collagenase. […] Phosphoramidon was tested using the Echovirus 3C recombinant and pneumococcus (types 6B and 23F) spiking systems.
(§2) The experiment shown in FIG. 22A was performed in the presence of Echo recombinant protease (50 nM) or in the presence of two different strains of pneumococcus 6B and 23F (lysate 1 μl). The inhibitory effect was measured in the presence/absent of Phosphoramidon (20 uM).
The experiment shown in FIG. 22B was performed in the presence of Echo recombinant protease (1:18), in the presence of meningococcus (lysate 3 ul) or in the presence of blood (10 ul).
Enterovirus 3C protease (Echo), WBC lysate (corresponding to 2×10^3 cells per test), Pneomococc lysate (corresponding to 1×10^6 bacteria per test) and Meningococc lysate (corresponding to 1×10^8 bacteria per test) (5 ul each) were spiked into artificial-CSF (45 ul), followed by the addition of the indicated inhibitor cocktails (5 ul each): I8, I9a=I8+Phosphoramidon (90 μM), I9b=I8+2-6-pyridinedicarboxylic acid (2.5 mM) and I10=I8+Phosphoramidon+2-6-pyridinedicarboxylic acid. The samples with the indicated inhibitor cocktails were incubated at RT for 2.5 min followed by the addition of 50 ul 2× reaction buffer containing the substrate camb2 (final concentration 2 μM). […]

[4] = test system: pneumococcus 6B; test: Pneumococcus 6B lysate spiking system (Camb2 cleavage); format: biochemical, Streptococcus pneumonia
Text: as §1, §2

[5] = test system: Enterovirus 3C protease; test: Enterovirus assay in clinical CSF samples (vs RT-PCR); format: biochemical; settings: bacterial samples 23-25; new assay conditions
Protocol: CSF samples obtained from two clinical sites, were tested for presence of enterovirus according to the method of the invention but before the assay conditions were optimized. The samples were also tested with a combination of RT-PCR and other clinical parameters. […] Samples were considered hemolytic if red blood cell (RBC) count was above 100/ul (for the one set) or if the sample's color was reddish (for the other set, RBC count not provided).
Samples whose reaction rate exceeded the cutoff value were considered positive, and those below this value were considered negative.
Each measurement was performed by using 50 uL of CSF sample. 5 ul of inhibitor cocktail (I8) was added to the samples and incubated for 2.5 min. The reaction was initiated by the addition of 50 uL 2× reaction buffer (“2× RB”, 50 mM HEPES pH7.5, 1.8M Na2SO4, 300 mM NaCl, 10% Glycerol, 10 mM EDTA and 10 mM EGTA each) containing the substrate camb2 (final concentration 2 uM).
Thaw samples at room temperature for 30 min in a biological hood. • 2. Prepare assay layout according to the number of samples to be run in the BMG fluorimeter and the well composition shown in Table 54
Prepare sufficient amount of inhibitor cocktail I10 (150 ul for 24 wells). • 4. […] Add Echo protease to p.c. (positive control) wells. • 6. […] Add inhibitor cocktail to all wells. • 8. Add 50 ul 2× RB+substrate to all the wells. • 9. […]

[6] = test system: pneumococcus 23F; test: Pneumococcus 23F lysate spiking system (Camb2 cleavage); format: biochemical, Streptococcus pneumonia
Text: as §1, §2

[7] = Phosphoramidon 20 uM, lysate 1 μl
[8] = at least three independent experiments

Row | Structure (SMILES) | inhibition of blood activity [1] | inhibition of meningococcus activity [2] | inhibition at 2500 µM [3] | inhibition of pneumococcus activity [4, 7] | inhibition of pneumococcus activity [4, 8] | effect on unspecific background activity of bacterial CSF samples [5] | inhibition at 20 µM ([3]; Phosphoramidon 20 uM, Echo recombinant protease 50 nM) | inhibition of pneumococcus activity [6, 7] | inhibition of pneumococcus activity [6, 8]
1 | O=C(O)c1cccc(C(=O)O)n1 [2,6-pyridinedicarboxylic acid] | 0% | 81% | 4.5% |  |  |  |  |  | 
2 | CC(C)C[C@H](NP(=O)(O)O[C@@H]1O[C@@H](C)[C@H](O)[C@@H](O)[C@H]1O)C(=O)N[C@@H](Cc1c[nH]c2ccccc12)C(=O)O [Phosphoramidon] |  |  |  | 91% | ~90% | could not abolish | 7% | 80% | ~90%
